Test results from patent publication US9012505B2, “Antimicrobial compounds and uses thereof” (priority 2010, dated 2015).
Entries after “also recorded” stand apart in the source; their conditions may differ.

Assays:
[1] = test system: Xanthomonas campestris strain 8004dF; test: Biofilm assay (Xcc biofilm dispersal, cell aggregates by phase contrast microscopy); format: cell-based; conditions: YEB medium
Description: For analysis of biofilm formation, a single colony of Xanthomonas campestris strain 8004dF (He et al., 2006) was inoculated and grown overnight at 28° C. in 5 ml of YEB medium. The bacterial cells in culture were visualized with a phase contrast microscope (Olympus BX50) and photographs were taken with an Olympus DP70 digital camera.
Given its structural similarity to DSF (Wang et al., 2004), which is known to regulate biofilm dispersal (Dow et al., 2003; He et al., 2006), MDEA was tested for its ability to promote Xcc biofilm dispersion. The Xcc DSF mutant ΔrpfF, which formed extensive cell aggregates (biofilm) in YEB medium (FIG. 2a), was used in this assay.

[2] = test system: PexsCEBA-lacZ (T3SS reporter strain); test: T3SS reporter PexsCEBA-lacZ β-galactosidase activity; format: cell-based, Pseudomonas aeruginosa; conditions: LB medium with 10 mM NTA, OD600 about 1.5
Source text: The promoter of exsCEBA was amplified by PCR using the primer pairs pC-F/pC-R ((5′-[…] (SEQ ID NO: 3)/5′-ggggcgcctcctaaagctc (SEQ ID NO: 4)), and cloned into the integration vector mini-CTX-lacZ (Zhou et al., 2007; Hoang et al., 2000; Becher and Schweizer, 2000). The construct was introduced into E. coli S17-1(λpir) and then integrated into the chromosome of P. aeruginosa as described previously (Hoang et al., 2000). The P. aeruginosa transconjugants were then selected on LB agar plates containing 100 μg/ml tetracycline and used as the T3SS reporter strain.
For determination of the inhibitory activity against T3SS, MDEA was added to the LB medium supplemented with 10 mM NTA before inoculation of the T3SS reporter strain. After incubation at 37° C. till OD600 reached about 1.5, the bacterial cells were harvested by centrifugation to measure the β-galactosidase activities following the method previously described (Jeffrey, 1992).
Type III secretion system (T3SS) is a major virulence determinant conserved in many Gram-negative bacterial pathogens. To test the ability of MDEA on regulation of T3SS gene expression in Pseudomonas aeruginosa, the T3SS reporter construct PexsCEBA-lacZ (Zhou et al., 2007) was used. The promoter PexsCEBA directs the expression of the T3SS master regulator ExsA, which positively controls the expression of all T3SS genes in P. aeruginosa (Yahr and Wolfgang, 2006; Frank, 1997).

exsC = test: Semi-quantitative RT-PCR of T3SS gene expression; format: cell-based, Pseudomonas aeruginosa; conditions: MDEA treatment, concentration not given
Description: Bacteria were grown in LB medium supplemented with 10 mM NTA at 37° C. with shaking (250 rpm) overnight were diluted to an OD600 of 0.05 in fresh LB medium and grown under the same conditions to an OD600 of 1.5. RNA samples were isolated using the RNeasy mini kit according to the manufacturer's instructions (Qiagen). The concentration and purity of RNA were determined by spectrometry and agarose gel electrophoresis. RT-PCR analysis was performed using the One-step RT-PCR kit according to the manufacturer's instructions (Qiagen) with the primer pairs RT-C—F/RT-C—R ((5′-[…] (SEQ ID NO: 5), 5′-[…] (SEQ ID NO: 6)).
The effect of MDEA on inhibition of T3SS was further analyzed by semi-quantitative RT-PCR. […] The data are consistent with the results based on the T3SS reporter (FIG. 3a).

[3] = test system: C. albicans strain SC5314; test: Candida albicans germ tube formation (morphological transition); format: cell-based; conditions: 37° C., 3 h, solvent control about 70%
Description: C. albicans strain SC5314 was incubated at 28° C. for overnight with shaking in the GMM medium consisting of 6.7 g of Bacto yeast nitrogen base (Difco) and 0.2% glucose (pH 7.2). C. albicans cells proliferate in yeast form under these conditions. The yeast cells were then diluted 20-fold in fresh GMM medium with or without MDEA. The cells were induced for 3 h at 37° C. Visualization and quantification of germ tube formation were performed using a phase contrast microscope (Olympus BX50) by counting about 400 C. albicans cells. The experiment was repeated twice, and the imaging was done with an Olympus DP70 digital camera.
Candida albicans is a fungal pathogen responsible for various forms of candiasis ranging from mucosal damages to serious systemic infections. It normally exists as a yeast but can form germ tubes (mycelia) under certain environmental conditions including human body temperature and serum. This morphological transition ability is critical for the fungal pathogen to establish infections. Mutants defective in morphological transitions are avirulent and unable to cause infections (Lo et al., 1997; Braun et al., 2000; Saville et al., 2003; Zheng et al., 2003). […] MDEA represents another structurally different unsaturated fatty acid. To determine its potential inhibitory activity MDEA was added to medium at various concentrations before inoculation of the fungal yeast cells, using methanol as a solvent control. After incubation at 37° C. for 3 h, about 70% of C. albicans cells in solvent control formed germ tubes (FIG. 4). In contrast, less than 30% and 5% of yeast cells could germinate in the presence of 0.5 or 5 μM of MDEA (FIG. 4). When the concentration was increased to 25 μM, the germ tube formation was reduced to 0.17% (FIG. 4).

CC(C)CCCCC=CC/C=C\C(=O)O [MDEA, cis-11-methyldodeca-2,5-dienoic acid]
Effect on cell aggregates (biofilm) of Xcc DSF-deficient mutant ([1]; 1 μM MDEA): inhibited 8004dF biofilm formation; also recorded: eliminated most of the cell aggregates | Effect on cell aggregates (biofilm) of Xcc DSF-deficient mutant ([1]; 5 μM MDEA): inhibited 8004dF biofilm formation; also recorded: all the cell aggregates disappeared | reduction of PexsCEBA-lacZ activity ([2]; 5 μM MDEA): 64.1% | reduction of PexsCEBA-lacZ activity ([2]; 10 μM MDEA): 68.5% | reduction of PexsCEBA-lacZ activity ([2]; 25 μM MDEA): 74.4% | reduction in transcriptional expression of exsC (exsC): about 60% | yeast cells that germinate (germ tube formation) ([3]; 0.5 μM MDEA): less than 30% | yeast cells that germinate (germ tube formation) ([3]; 5 μM MDEA): < 5% | germ tube formation ([3]; 25 μM MDEA): 0.17%
